Test results reported in ChEMBL document CHEMBL1909294, “Translating clinical findings into knowledge in drug safety evaluation--drug induced liver injury prediction system (DILIps)” (PLoS Comput Biol, 2011).

What was measured:
Hepatotoxicity [1] = test system: Hepatotoxicity;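 as to HepSE bilirubinemia: bilirubinemia hepatic side effect score drawn from the DILIps training data, a prediction system for drug-induced liver injury; call rule not given here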;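 as to HepSE cholecystitis: Cholecystitis-related hepatic side effect score drawn from the DILIps (drug-induced liver injury prediction) training data set; call rule not given here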;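 as to HepSE cholelithiasis: hepatic side effect score for cholelithiasis, drawn from the DILIps training data for predicting drug-induced liver injury; call rule not given here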;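 as to HepSE cirrhosis: cirrhosis hepatic side effect score taken from the DILIps (drug-induced liver injury prediction) training set; call rule not given here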;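 as to HepSE elevated liver function tests: hepatic side effect score for raised liver function tests, as recorded in the DILIps training set used for predicting drug-induced liver injury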; as to HepSE hepatic failure: call rule not given here;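 as to HepSE hepatomegaly: hepatic side effect score for hepatomegaly, taken from the training set of the DILIps drug-induced liver injury prediction system; call rule not given here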
Hepatotoxicity [2] = test system: Hepatotoxicity; remark: listed apart in the source;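 as to HepSE bilirubinemia: bilirubinemia hepatic side effect score drawn from the DILIps training data, a prediction system for drug-induced liver injury; call rule not given here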;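 as to HepSE cholecystitis: Cholecystitis-related hepatic side effect score drawn from the DILIps (drug-induced liver injury prediction) training data set; call rule not given here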;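 as to HepSE cholelithiasis: hepatic side effect score for cholelithiasis, drawn from the DILIps training data for predicting drug-induced liver injury; call rule not given here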;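 as to HepSE cirrhosis: cirrhosis hepatic side effect score taken from the DILIps (drug-induced liver injury prediction) training set; call rule not given here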;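 as to HepSE elevated liver function tests: hepatic side effect score for raised liver function tests, as recorded in the DILIps training set used for predicting drug-induced liver injury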; as to HepSE hepatic failure: call rule not given here
Hepatotoxicity [3] = test system: Hepatotoxicity; remark: listed apart in the source;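 as to HepSE bilirubinemia: bilirubinemia hepatic side effect score drawn from the DILIps training data, a prediction system for drug-induced liver injury; call rule not given here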;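 as to HepSE cholecystitis: Cholecystitis-related hepatic side effect score drawn from the DILIps (drug-induced liver injury prediction) training data set; call rule not given here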;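 as to HepSE cholelithiasis: hepatic side effect score for cholelithiasis, drawn from the DILIps training data for predicting drug-induced liver injury; call rule not given here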;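 as to HepSE cirrhosis: cirrhosis hepatic side effect score taken from the DILIps (drug-induced liver injury prediction) training set; call rule not given here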;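 as to HepSE elevated liver function tests: hepatic side effect score for raised liver function tests, as recorded in the DILIps training set used for predicting drug-induced liver injury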; as to HepSE hepatic failure: call rule not given here
Hepatotoxicity [4] = test system: Hepatotoxicity; remark: listed apart in the source;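 as to HepSE bilirubinemia: bilirubinemia hepatic side effect score drawn from the DILIps training data, a prediction system for drug-induced liver injury; call rule not given here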;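 as to HepSE cholecystitis: Cholecystitis-related hepatic side effect score drawn from the DILIps (drug-induced liver injury prediction) training data set; call rule not given here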;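 as to HepSE cholelithiasis: hepatic side effect score for cholelithiasis, drawn from the DILIps training data for predicting drug-induced liver injury; call rule not given here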;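 as to HepSE cirrhosis: cirrhosis hepatic side effect score taken from the DILIps (drug-induced liver injury prediction) training set; call rule not given here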;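 as to HepSE elevated liver function tests: hepatic side effect score for raised liver function tests, as recorded in the DILIps training set used for predicting drug-induced liver injury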; as to HepSE hepatic failure: call rule not given here
Hepatotoxicity [5] = test system: Hepatotoxicity; remark: listed apart in the source; as to HepSE hepatic failure: call rule not given here
Hepatotoxicity [6] = test system: Hepatotoxicity; remark: listed apart in the source; as to HepSE hepatic failure: call rule not given here
Hepatotoxicity [7] = test system: Hepatotoxicity; remark: listed apart in the source
Hepatotoxicity [8] = test system: Hepatotoxicity; remark: listed apart in the source
Hepatotoxicity [9] = test system: Hepatotoxicity; remark: listed apart in the source
Hepatotoxicity [10] = test system: Hepatotoxicity; remark: listed apart in the source
Hepatotoxicity [11] = test system: Hepatotoxicity; remark: listed apart in the source
Hepatotoxicity [12] = test system: Hepatotoxicity; remark: listed apart in the source
Hepatotoxicity [13] = test system: Hepatotoxicity; remark: listed apart in the source
Hepatotoxicity [14] = test system: Hepatotoxicity; remark: listed apart in the source

Structure (SMILES) | HepSE_bilirubinemia (Hepatotoxicity [1]) | HepSE_cholecystitis (Hepatotoxicity [2]) | HepSE_cholelithiasis (Hepatotoxicity [3]) | HepSE_cirrhosis (Hepatotoxicity [4]) | HepSE_elevated liver function tests (Hepatotoxicity [5]) | HepSE_hepatic failure (Hepatotoxicity [6]) | HepSE_hepatic necrosis (Hepatotoxicity [7]) | HepSE_hepatitis (Hepatotoxicity [8]) | HepSE_hepatomegaly (Hepatotoxicity [9]) | HepSE_jaundice (Hepatotoxicity [10]) | HepSE_liver disease (Hepatotoxicity [11]) | HepSE_liver fatty (Hepatotoxicity [12]) | HepSE_liver function tests abnormal (Hepatotoxicity [13]) | HepSE_Combined Scores (Hepatotoxicity [14]) | other results
C[C@H]1C[C@H]2[C@@H]3CCC4=CC(=O)C=C[C@]4(C)[C@@]3(Cl)[C@@H](O)C[C@]2(C)[C@@]1(O)C(=O)CO [BECLOMETHASONE] | 0 | 0 | 0 | 0 | 0 | 0 | 0 | 0 | 0 | 0 | 0 | 0 | 0 | 0 | –
CCOC(=O)[C@H](CCc1ccccc1)N[C@H]1CCc2ccccc2N(CC(=O)O)C1=O [BENAZEPRIL] | 0 | 0 | 0 | 0 | 0 | 0 | 0 | 1 | 0 | 1 | 0 | 0 | 0 | 2 | –
NS(=O)(=O)c1cc2c(cc1C(F)(F)F)NC(Cc1ccccc1)NS2(=O)=O (stereo unspecified) [BENDROFLUMETHIAZIDE] | 0 | 0 | 0 | 0 | 0 | 0 | 0 | 1 | 0 | 1 | 0 | 0 | 0 | 2 | –
O=C(OOC(=O)c1ccccc1)c1ccccc1 [BENZOYL PEROXIDE] | 0 | 0 | 0 | 0 | 0 | 0 | 0 | 0 | 0 | 0 | 0 | 0 | 0 | 0 | –
CN1[C@@H]2CC[C@H]1C[C@@H](OC(c1ccccc1)c1ccccc1)C2 [BENZTROPINE] | 0 | 0 | 0 | 0 | 0 | 0 | 0 | 0 | 0 | 0 | 0 | 0 | 0 | 0 | –
CN(C)CCCOc1nn(Cc2ccccc2)c2ccccc12 [BENZYDAMINE] | 0 | 0 | 0 | 0 | 0 | 0 | 0 | 0 | 0 | 0 | 0 | 0 | 0 | 0 | –
CNCCc1ccccn1 [BETAHISTINE] | 0 | 0 | 0 | 0 | 0 | 0 | 0 | 0 | 0 | 0 | 0 | 0 | 0 | 0 | –
C[N+](C)(C)CC(=O)O [BETAINE] | 0 | 0 | 0 | 0 | 0 | 0 | 0 | 0 | 0 | 0 | 0 | 0 | 0 | 0 | –
CC(C)NCC(O)COc1ccc(CCOCC2CC2)cc1 (stereo unspecified) [BETAXOLOL] | – | – | – | – | – | – | – | – | – | – | – | – | – | – | HepSE_bilirubinemia (Hepatotoxicity [1]; Liver): 0; HepSE_cholecystitis (Hepatotoxicity [2]; Liver): 0; HepSE_cholelithiasis (Hepatotoxicity [3]; Liver): 0; HepSE_cirrhosis (Hepatotoxicity [4]; Liver): 0; HepSE_elevated liver function tests (Hepatotoxicity [5]; Liver): 0; HepSE_hepatic failure (Hepatotoxicity [6]; Liver): 0; HepSE_hepatic necrosis (Hepatotoxicity [7]; Liver): 0; HepSE_hepatitis (Hepatotoxicity [8]; Liver): 0; HepSE_hepatomegaly (Hepatotoxicity [9]; Liver): 0; HepSE_jaundice (Hepatotoxicity [10]; Liver): 0; HepSE_liver disease (Hepatotoxicity [11]; Liver): 0; HepSE_liver fatty (Hepatotoxicity [12]; Liver): 0; HepSE_liver function tests abnormal (Hepatotoxicity [13]; Liver): 0; HepSE_Combined Scores (Hepatotoxicity [14]; Liver): 0
